Results taken from US9044421B2, “Treating MUC1-expressing cancers with combination therapies” (GENUS ONCOLOGY, LLC., priority 2012, dated 2015).
Where a SMILES comes first, the peptide text is derived from it. [ ]: non-standard residue; d: D form.

Experiments:
PI3-kinase = conditions: different cell types (Folks et al., 2008); cited from earlier work
p-S6K = assay: Immunoblotting of total cell lysates with anti-phospho-S6K; assay type: cell-based; conditions: ZR-75-1 cells, combined with GDC-0941 (FIG. 9)
Description: FIG. 9. ZR-75-1 breast carcinoma cells were treated with GO-203-2C and GDC-0941 either alone or in combination. Total cell lysates were prepared and analyzed by immunoblotting with anti-phospho-S6K (top panel) or anti-S6K (bottom panel).

p-AKT = assay: Immunoblotting of total cell lysates with anti-phospho-AKT; assay type: cell-based; conditions: ZR-75-1 cells, combined with LY294002 (FIG. 8)
Description: FIG. 8. ZR-75-1 breast carcinoma cells were treated with GO-203-2C and LY294002 either alone or in combination. Total cell lysates were prepared and analyzed by immunoblotting with anti-phospho-AKT (top panel) or anti-AKT (bottom panel).

[1] = system: H-1650 non small cell lung carcinoma cells; assay: AlamarBlue cell viability assay, H-1650 cells; assay type: cell-based
Description: FIG. 1. H-1650 non small cell lung carcinoma cells in a 96-well plate were treated with various concentrations of purified GO-203-2C for four days. AlamarBlue dye was added to the cells on day 5, and the absorbance was measured at 570 and 600 nm. A 4-parameter curve was obtained by plotting the percentage reduction of alamarBlue calculated using these absorbance values against the concentration of GO-203-2C used.
alamarBlue assay involves the usage of a fluorometric/colorimetric growth indicator, alamarBlue based on the metabolic activity of cells. As cells grow, the innate metabolic activity results in a chemical reduction of alamarBlue. Continued growth maintains a reduced environment while inhibition of growth maintains an oxidized environment. Live cells cause the change of alamarBlue from oxidized (non-fluorescent, blue) form to reduced (fluorescent, red) form. Data can be collected using either fluorescence-based or absorbance-based instrumentation. Fluorescence is monitored at 530-560 nm excitation wavelength and at 590 nm emission wavelength. Absorbance is monitored at 570 am and 600 nm.
This assay was developed with a 96-well plate using ZR-75-1 or MCF-7 (breast carcinoma cell lines) or H1650 non-small cell lung carcinoma cells at different cell concentrations and the optimal cell number was calculated to be 5,000 cells/well in […] volume. The cell number/well has to be optimized for each cell type to be tested. ZR-75-1 or MCF-7 cells were treated with various concentrations of GO-203-2c, LY294002 or GDC-0941 with 2-fold serial dilutions to obtain a total of 8 different concentrations. Cells in triplicate wells were treated with each concentration of GO-203-2c every day, for 4 days. […] At the end of each hour, absorbance of the plate was measured at 570 nm and 600 nm as reference. A set of blank wells was maintained with medium alone and medium with alamarBlue for the purpose of calculating actual absorbance. Obtained absorbance values were plotted against respective concentrations of GO-2-3-2c. […]

Row | SMILES | IC50 (PI3-kinase) [µM] | effect on p-S6K (p-S6K) | effect on p-AKT (p-AKT) | live cells ([1]; at 10 mM) [%] | percent reduction of alamarBlue ([1]; highest concentration tested (10 mM)) [%] | percent reduction of alamarBlue ([1]; lowest concentration tested (0.078 mM), untreated control 55.34%) [%]
1 | CS(=O)(=O)N1CCN(Cc2cc3nc(-c4cccc5[nH]ncc45)nc(N4CCOCC4)c3s2)CC1 [GDC-0941] | 0.5 to 2 |  |  |  |  | 
2 | CC(=O)N[C@H](CCCNC(=N)N)C(=O)N[C@H](CCCNC(=N)N)C(=O)N[C@H](CCCNC(=N)N)C(=O)N[C@H](CCCNC(=N)N)C(=O)N[C@H](CCCNC(=N)N)C(=O)N[C@H](CCCNC(=N)N)C(=O)N[C@H](CCCNC(=N)N)C(=O)N[C@H](CCCNC(=N)N)C(=O)N[C@H](CCCNC(=N)N)C(=O)N[C@H](CS)C(=O)N[C@H](CCC(N)=O)C(=O)N[C@H](CS)C(=O)N[C@H](CCCNC(=N)N)C(=O)N[C@H](CCCNC(=N)N)C(=O)N[C@H](CCCCN)C(=O)N[C@H](CC(N)=O)C(N)=O [GO-203-2C] (Ac-[dR][dR][dR][dR][dR][dR][dR][dR][dR][dC][dQ][dC][dR][dR][dK][dN]-NH2) |  | contributing to the downregulation | contributing to the downregulation | 12.3 | 6.86 | 55.65
